Measured values taken from US20260138957A1, “UREA-LINKED 2-AMINOIMIDAZOLE DIMER POTENTIATORS” (UNIVERSITY OF NOTRE DAME DU LAC, priority 2022, published 2026).

What was measured:
[1] = tested on: AB5075; experiment: Potentiation of azithromycin, erythromycin and rifampin against AB5075; type: cell-based, Acinetobacter baumannii; settings: for activity in combination with AZM, ERM and RIF (in words): AB5075, adjuvant at ≤30% their MIC; for fold decrease of RIF MIC: AB5075, adjuvant at 10 μM
[2] = tested on: A. baumannii strain 5075 (AB5075); experiment: Clarithromycin potentiation against AB5075 (CLR MIC in presence of adjuvant); type: cell-based, Acinetobacter baumannii; settings: for CLR potentiation activity (in words): AB5075, 30 μM
[3] = tested on: AB 5075; experiment: Colistin MIC in absence or presence of compounds against AB 5075; type: cell-based, Acinetobacter baumannii; settings: adjuvant at 30 μM, AB5075
Excerpt: However, dropping LOS comes with fitness costs such as reduced growth rates, lower virulence, and increased sensitivity towards certain antibiotics.

[4] = tested on: A. baumannii strain 5075 (AB5075); experiment: Standalone MIC against AB5075 (compound or antibiotic alone); type: cell-based, Acinetobacter baumannii; design: MIC against AB5075 (inherent anti-bacterial activity): unit not given beside the values; settings: compound alone; for MIC against AB5075 (inherent anti-bacterial activity): newly synthesized material; for MIC: Acinetobacter baumannii, AB5075
Excerpt: Dimers were first analyzed for standalone toxicity against AB5075.

[5] = Plasma stability; type: in vitro ADME; settings: 4 hours
[6] = Microsomal (metabolic) stability; type: in vitro ADME; settings: 60 minutes
[7] = tested on: K. pneumoniae 2146; experiment: Combination with RIF against K. pneumoniae 2146; type: cell-based, Klebsiella pneumoniae; settings: K. pneumoniae 2146, compared with the parent dimers
[8] = tested on: panel of A. baumannii isolates; experiment: Standalone MIC/toxicity against panel of A. baumannii isolates; type: cell-based, Acinetobacter baumannii
[9] = tested on: A. baumannii; experiment: CLR adjuvant activity with exogenous LOS added to the media; type: cell-based, Acinetobacter baumannii; settings: LOS from AB5075 at 0.2 mg/mL or 0.5 mg/mL
Experimental: First, we examined the impact that addition of MgCl2 had on activity. Divalent cations, such as Mg^2+, are known to stabilize the outer membrane of gram-negative bacteria and the activity of membrane disruptors are known to be muted/abrogated by the addition of such cations. When the media was supplemented with MgCl2 (20 mM final concentration), activity was essentially abolished. As suppression of activity could conceivably originate from either blocking the compound's mechanism of action or simply making the membrane more impermeable that leads to the inability of the compound to penetrate the outer membrane, we next studied the impact that the addition of exogenous LOS had upon activity.

[10] = tested on: panel of A. baumannii isolates; experiment: CLR potentiation against panel of A. baumannii isolates; type: cell-based, Acinetobacter baumannii; settings: 25 AB strains, adjuvant at 10 μM (4.8 μg/mL) or less
[11] = tested on: HepG2 cells; experiment: Cytotoxicity, XTT assay with HepG2 cells; settings: mammalian cell toxicity

SMILES | Clarithromycin (CLR) MIC ([2]; adjuvant at 7.5 μM, AB5075) [µg/mL] | Fold Reduction of CLR MIC ([2]; adjuvant at 7.5 μM, AB5075) [fold] | Clarithromycin (CLR) MIC ([2]; adjuvant at 10 μM, AB5075) [µg/mL] | Fold Reduction of CLR MIC ([2]; adjuvant at 10 μM, AB5075) [fold] | Clarithromycin (CLR) MIC ([2]; adjuvant at 20 μM, AB5075) [µg/mL] | Fold Reduction of CLR MIC ([2]; adjuvant at 20 μM, AB5075) [fold] | Clarithromycin (CLR) MIC ([2]; adjuvant at 30 μM, AB5075) [µg/mL] | Fold Reduction of CLR MIC ([2]; adjuvant at 30 μM, AB5075) [fold] | MIC [4] [µM] | also measured
Nc1nc(-c2ccc(NC(=O)Nc3ccc(-c4c[nH]c(N)n4)cc3)cc2)c[nH]1 [Compound 3] | 8 | 4 | 4 | 8 | 0.5 | 64 | 0.125 | 256 |  | activity in combination with AZM, ERM and RIF (in words) [1]: significant activity; Colistin MIC [3]: 2 µg/mL; MIC against AB5075 (inherent anti-bacterial activity) [4]: > 200
Nc1nc(-c2ccc(NC(=O)Nc3cccc(-c4c[nH]c(N)n4)c3)cc2)c[nH]1 [Compound 4] |  |  | 16 | 2 | 1 | 32 | 0.125 | 256 |  | activity in combination with AZM, ERM and RIF (in words) [1]: significant activity; Colistin MIC [3]: 0.25 µg/mL; MIC ([4]; value in brackets): > 447 µg/mL; MIC against AB5075 (inherent anti-bacterial activity) [4]: > 200
Nc1nc(-c2cccc(NC(=O)Nc3cccc(-c4c[nH]c(N)n4)c3)c2)c[nH]1 [Compound 5] | 1 | 32 | 0.5 | 64 | 0.0625 | 512 | 0.03125 | 1024 |  | activity in combination with AZM, ERM and RIF (in words) [1]: significant activity; Clarithromycin (CLR) MIC ([2]; adjuvant at 5 μM, AB5075): 4 µg/mL; Fold Reduction of CLR MIC ([2]; adjuvant at 5 μM, AB5075): 8 fold; plasma stability (in words) [5]: steady concentration over 4 hours; microsomal stability (in words) [6]: steady concentration over 60 minutes; Colistin MIC [3]: 2 µg/mL; MIC ([4]; value in brackets): 447 µg/mL; MIC against AB5075 (inherent anti-bacterial activity) [4]: 200
Nc1nc(-c2ccc(NC(=O)Nc3ccc(-c4c[nH]c(N)n4)c(F)c3)cc2F)c[nH]1 [Compound 9a] | 0.5 | 64 | 0.125 | 256 | 0.0625 | 512 | 0.03125 | 1024 | > 200 | fold decrease of RIF MIC [1]: 32 fold; activity in combination with AZM, ERM and RIF (in words) [1]: significant activity; potentiation of RIF (in words) [7]: greater potentiation activity at lower concentrations; toxicity of compound alone (in words) [8]: no toxicity; Clarithromycin (CLR) MIC ([2]; adjuvant at 5 μM, AB5075): 2 µg/mL; Fold Reduction of CLR MIC ([2]; adjuvant at 5 μM, AB5075): 16 fold; CLR adjuvant activity with exogenous LOS (in words) [9]: no loss of adjuvant activity; lowering of CLR MIC values [10]: at least four-fold; plasma stability (in words) [5]: steady concentration over 4 hours; microsomal stability (in words) [6]: steady concentration over 60 minutes
Nc1nc(-c2cc(NC(=O)Nc3ccc(F)c(-c4c[nH]c(N)n4)c3)ccc2F)c[nH]1 [Compound 9b] | 1 | 32 | 0.5 | 64 | 0.25 | 128 | 0.125 | 256 | > 200 | Clarithromycin (CLR) MIC ([2]; adjuvant at 5 μM, AB5075): 2 µg/mL; Fold Reduction of CLR MIC ([2]; adjuvant at 5 μM, AB5075): 16 fold
Nc1nc(-c2ccc(NC(=O)Nc3ccc(-c4c[nH]c(N)n4)c(C(F)(F)F)c3)cc2C(F)(F)F)c[nH]1 [Compound 9c] |  |  |  |  |  |  | 2 | 16 | > 200 | CLR potentiation activity (in words) [2]: abolished all activity
COc1cc(-c2c[nH]c(N)n2)ccc1NC(=O)Nc1ccc(-c2c[nH]c(N)n2)cc1OC [Compound 9d] |  |  |  |  |  |  | 8 | 4 | 200 | CLR potentiation activity (in words) [2]: abolished all activity
Nc1nc(-c2ccc(F)c(NC(=O)Nc3cc(-c4c[nH]c(N)n4)ccc3F)c2)c[nH]1 [Compound 9e] |  |  |  |  |  |  | 32 | 1 | > 200 | 
Nc1nc(-c2cccc(NC(=O)Nc3cccc(-c4c[nH]c(N)n4)c3F)c2F)c[nH]1 [Compound 9f] | 2 | 16 | 1 | 32 | 0.5 | 64 | 0.25 | 128 | > 200 | 
Nc1nc(-c2cc(F)cc(NC(=O)Nc3cc(F)cc(-c4c[nH]c(N)n4)c3)c2)c[nH]1 [Compound 9g] | 0.25 | 128 | 0.125 | 256 | 0.0625 | 512 | ≤0.0625 |  | > 200 | fold decrease of RIF MIC [1]: 32 fold; activity in combination with AZM, ERM and RIF (in words) [1]: significant activity; potentiation of RIF (in words) [7]: greater potentiation activity at lower concentrations; toxicity of compound alone (in words) [8]: no toxicity; CLR MIC ([2]; adjuvant at 2.5 μM, AB5075): 1 µg/mL; Fold Reduction of CLR MIC ([2]; adjuvant at 2.5 μM, AB5075): 32 fold; Clarithromycin (CLR) MIC ([2]; adjuvant at 5 μM, AB5075): 0.5 µg/mL; Fold Reduction of CLR MIC ([2]; adjuvant at 5 μM, AB5075): 64 fold; lowering of CLR MIC values [10]: at least four-fold; IC50, HepG2 cells [11]: > 256 µg/mL; IC50 ([11]; read-out: IC50, HepG2 cells): > 530 µM
Nc1nc(-c2ccc(NC(=O)Nc3ccc(F)c(-c4c[nH]c(N)n4)c3)cc2F)c[nH]1 [Compound 9h] |  |  |  |  | 4 | 8 | 0.5 | 64 | > 200 | 
Nc1nc(-c2ccc(F)c(NC(=O)Nc3ccc(-c4c[nH]c(N)n4)c(F)c3)c2)c[nH]1 [Compound 9i] |  |  |  |  |  |  | 8 | 4 | > 200 | 
Nc1nc(-c2cc(F)cc(NC(=O)Nc3ccc(-c4c[nH]c(N)n4)c(F)c3)c2)c[nH]1 [Compound 9j] | 0.25 | 128 | 0.125 | 256 | 0.125 | 256 | 0.0625 | 512 | > 200 | Clarithromycin (CLR) MIC ([2]; adjuvant at 5 μM, AB5075): 1 µg/mL; Fold Reduction of CLR MIC ([2]; adjuvant at 5 μM, AB5075): 32 fold
Nc1nc(-c2cccc(NC(=O)Nc3cc(F)cc(-c4c[nH]c(N)n4)c3)c2)c[nH]1 [Compound 9l] | 1 | 32 | 0.5 | 64 | 0.0625 | 512 | 0.0625 | 512 | > 200 | 
Nc1nc(-c2ccc(NC(=O)Nc3ccc(-c4c[nH]c(N)n4)c(F)c3)cc2)c[nH]1 [Compound 9m] | 2 | 16 | 1 | 32 | 0.5 | 64 | 0.0625 | 512 | > 200 | 
Nc1nc(-c2ccc(NC(=O)Nc3ccc(-c4c[nH]c(N)n4)cc3F)c(F)c2)c[nH]1 [Compound 14a] |  |  |  |  |  |  | 4 | 8 | > 200 | 
Nc1nc(-c2ccc(NC(=O)Nc3ccc(-c4c[nH]c(N)n4)c(Cl)c3)cc2Cl)c[nH]1 [Compound 14b] |  |  |  |  |  |  | 32 | 1 | > 200 | CLR potentiation activity (in words) [2]: abolished all activity
Cc1cc(-c2c[nH]c(N)n2)ccc1NC(=O)Nc1ccc(-c2c[nH]c(N)n2)cc1C [Compound 14c] |  |  |  |  |  |  | 32 | 1 | > 200 | CLR potentiation activity (in words) [2]: abolished all activity
